Laboratory results: patent US20220403327A1, “CUSTOMIZABLE 3D CELL CULTURE SYSTEM COMPRISING HYDROGEL-EMBEDDED CELLS AND USES THEREOF” (POLYVALOR, LIMITED PARTNERSHIP, priority 2019, published 2022)

What was measured:
Assay type in all cases: cell-based
breast cancer cells = assay: Drug screening test: tumor migration on plasma-treated PLA electrospun mat 3D cell culture model; conditions: 0, 0.05, 0.1, 0.5, 1 and 2 μM in media; day 7 of cell culture; A1G7 hydrogel on fibroblast-seeded PLA mats; triplicate
Description: FIG. 11B is a graph showing the measurement of the number of tumor cells migrated to the surface of PLA mats at different concentrations (0, 0.05, 0.1, 0.5, 1 or 2 μM) of Doxorubicin. Experiments were performed in triplicate and the error bars in the graph show the standard deviation.
(§1) A drug screening setup was designed using the known anti-tumor drug Doxorubicin to assess tumor migration performance on the 3D cell culture model of the present disclosure. The plasma-treated PLA electrospun mats seeded with fibroblasts and tumor cells on A1G7 hydrogel on top, were loaded with various concentrations of Doxorubicin (0, 0.05, 0.1, 0.5, 1 and 2 μM) in triplicate, and tumor migration assessment was performed at day 7 of cell culture. […] The experiment was done in triplicate and the error bars presented in the chart are based on standard deviation.

fibroblasts = assay: Drug screening test: stromal cells on nanofibrous PLA scaffolds of the 3D cell culture model; conditions: 0-2 μM; day 7; relative to samples from previous experiment without drug
Description: as §1, with “A1G7” left out

[1] = system: bone metastases prostate (BMP4) patient-derived tumor cells; assay: Drug screening test: tumor migration on PP-EL plasma-coated PLA electrospun mats with patient-derived tumor cells; conditions: 0, 0.05, 0.1 and 0.5 μM, day 7 of cell culture, A1G7 hydrogel, triplicate
Description: FIG. 12C is a graph showing the measurement of the number of BMP4 tumor cells migrated to the surface of PP-EL plasma-treated PLA mats at different concentrations (0, 0.05, 0.1, or 0.5 μM) of Doxorubicin. Experiments were performed in triplicate and the error bars in the graph show the standard deviation.
The 3D cell culture system according to the present disclosure was also used to perform a doxorubicin screening tested with tumor cells derived from patients (bone metastases prostate (BMP4) patient-derived tumor cells) and a breast tumor cell line (MBA-MB231) in A1G7 hydrogel. In this experiment, the PLA scaffolds were coated with PP-EL, ethyl lactate (EL) plasma coating in atmospheric pressure, and captured at day 7 after culture. The results depicted in FIG. 12A indicate a significant difference in the appearance of primary BMP4 tumor cells and commercial tumor cell line in the images. The pictures show the 3D stack of the total mat layers (certain thickness) obtained by signal from cells.
The PP-EL plasma-coated PLA electrospun mats seeded with BMP4 tumor cells on A1G7 hydrogel on top, were loaded with various concentrations of Doxorubicin (0, 0.05, 0.1 and 0.5 μM) in triplicate, and tumor migration assessment was performed at day 7 of cell culture.

SMILES: COc1cccc2c1C(=O)c1c(O)c3c(c(O)c1C2=O)C[C@@](O)(C(=O)CO)C[C@@H]3O[C@H]1C[C@H](N)[C@H](O)[C@H](C)O1 [Doxorubicin]
- number of breast cancer cells that were able to migrate to the surface of scaffolds (breast cancer cells): significant reduction
- number of stromal cells (fibroblasts) on nanofibrous scaffolds (fibroblasts): reduced number of stromal cells
- BMP4 tumor cells migration [1]: dose-dependent inhibition
